“Also recorded” adds a separate entry of the source.
What was measured:
Type in all cases: cell-based, human
ATR protein [1] = assay: Western blotting, ATR protein, Panc-1 cells; details: 3 μM
Method: (§1) Specifically, JeKo-1 cells were cultured for 0 (control), 12, 24, and 48 hours in the presence of 0.5 μM of 3EZ,20Ac-ingenol. In addition, Panc-1 cells were cultured for 0 (control), 12, 24, and 48 hours in the presence of 3 μM of 3EZ,20Ac-ingenol.
(§2) Subsequently, ATR protein, p53 protein, and phosphorylated p53 (hereinafter also referred to as “p-p53”) protein in the respective cells were respectively detected using an anti-ATR antibody (Cell Signaling Technology), an anti-p53 antibody (Santa Cruz), and an anti-p-p53 antibody (Cell Signaling Technology). Furthermore, as a loading control, actin protein was detected using an anti-actin antibody (Sigma).

TKG0377 cells = assay: Cell Death Detection ELISA, TKG0377; details: 0.5 μM, 72 hours
Method: The induction of apoptosis by 3EZ,20Ac-ingenol treatment was examined by detecting histone-binding DNA fragmentation in the cytoplasm using a Cell Death Detection ELISA kit (Roche Applied Science).
Specifically, BALL-1 cells, TKG0210 cells, and TKG0377 cells were inserted into tubes at 5×10^4 cells/well/200 μL, and incubated for 6, 12, 24, 48, and 72 hours in the presence of 3EZ,20Ac-ingenol at a final concentration of 0.5 μM. Subsequently, the respective cells were lysed in a lysis buffer. Subsequently, the supernatant of cell debris of the respective cells was collected and transferred to an ELISA plate, and an absorbance at a wavelength of 405 nm was measured to measure the induction of apoptosis.

[2] = tested on: phosphorylated Akt (Ser^473); assay: Western blotting, p-Akt (Ser473), BALL-1 cells; details: 0.5 μM
Method: (§3) The effect of 3EZ,20Ac-ingenol treatment on a PI3K/Akt signaling pathway was examined. Specifically, BALL-1 cells, TKG0210 cells, and TKG0377 cells were cultured for 48 hours in the presence of 3EZ,20Ac-ingenol at a final concentration of 0.5 μM, and by Western blotting using an anti-p-Akt (Ser^473) antibody (Cell Signaling Technology), phosphorylation of the 473th serine residue of an Akt protein in respective fractions of the entire cell, a nucleus, and a cytoplasm was analyzed. In addition, cells cultured in the absence of 3EZ,20Ac-ingenol were used as controls.
The effect of 3EZ,20Ac-ingenol treatment on PTEN, p-PTEN, and p-Akt of BALL-1 cells was examined. First, BALL-1 cells were cultured for 3, 6, 12, 24, and 48 hours in the presence of 3EZ,20Ac-ingenol at a final concentration of 0.5 μM, and by Western blotting using an anti-PTEN antibody (Santa Cruz), an anti-p-PTEN (Ser^380/Thr^382/383) antibody (Santa Cruz), and an anti-p-Akt (Ser^473) antibody (Cell Signaling Technology), abundances of PTEN, p-PTEN, and p-Akt in the entire cell fraction were analyzed. In addition, cells cultured in the absence of 3EZ,20Ac-ingenol were used as controls.
(§4) BALL-1 cells, TKG0210 cells, and TKG0377 cells were cultured for 24 and 48 hours in the presence of 3EZ,20Ac-ingenol at a final concentration of 0.5 μM, and abundances of p-Akt in the nuclear fraction and the cytoplasm fraction were analyzed by Western blotting. In addition, respective cells cultured in the absence of 3FZ,20Ac-ingenol were used as controls.
The effect of 3EZ,20Ac-ingenol treatment on PTEN and p-Akt was examined using siRNA against PTEN. First, BALL-1 cells were cultured for 12, 24, and 48 hours in the presence of 3EZ,20Ac-ingenol at a final concentration of 0.5 μM, and an abundance of p-Akt was analyzed by Western blotting in the same manner as in Experimental Example 11. Cells cultured in the absence of 3EZ,20Ac-ingenol were used as controls.
Subsequently, siRNA against PTEN (“ON-TARGET Plus Human PTEN (5728) siRNA-SMARTpool,” GE Dharmacon) was introduced into BALL-1 cells at a final concentration of 50 nM and incubated for 48 hours. Subsequently, a cell medium was replaced with a new medium and cultured for 12, 24, and 48 hours in the presence or absence of 3EZ,20Ac-ingenol at a final concentration of 0.5 μM, and by Western blotting using an anti-PTEN antibody (Santa Cruz) and an anti-p-Akt (Ser^473) antibody (Cell Signaling Technology), abundances of PTEN protein and p-Akt were analyzed.

[3] = tested on: phosphorylated Akt (Ser^473); assay: Western blotting, p-Akt (Ser473), TKG0210 cells; details: 0.5 μM
Method: as §3, §4

GSK-3β = assay: Western blotting, GSK-3β, Panc-1 cells; details: 3 μM, entire cell, 12 hours
Method: (§5) Specifically, first, JeKo-1 cells were cultured for 0 (control), 12, 24, and 48 hours in the presence of 0.5 μM of 3EZ,20Ac-ingenol. In addition, Panc-1 cells were cultured for 0 (control), 12, 24, and 48 hours in the presence of 3 μM of 3EZ,20Ac-ingenol.
Subsequently, abundances of GSK-3β and p-GSK-3β in the respective cells were analyzed by Western blotting using an anti-GSK-3β antibody (Cell Signaling Technology) and an anti-p-GSK-3β (Ser^9) antibody (Cell Signaling Technology). Furthermore, as a loading control, actin protein was detected using an anti-actin antibody (Sigma).

[4] = tested on: phosphorylated p53 (p-p53) protein; assay: Western blotting, phosphorylated p53, Panc-1 cells; details: 3 μM
Method: as §1, §2

Akt protein = assay: Western blotting, total amount of Akt, Panc-1 cells; details: 3 μM
Method: as §5
Subsequently, by Western blotting using an anti-Akt antibody (Cell Signaling Technology) and an anti-p-Akt (Ser^473) antibody (Cell Signaling Technology), abundances of total amounts of Akt protein and p-Akt in the entire cell fractions, nuclear fractions, and cytoplasm fractions of the respective cells were analyzed. Furthermore, as a loading control, actin protein was detected using an anti-actin antibody (Sigma).

ATR protein [5] = assay: Western blotting, ATR protein, JeKo-1 cells; details: 0.5 μM
Method: as §1, §2

[6] = 12 hours, further increase 24 hours after treatment

With `CCCCC/C=C\C=C\C(=O)O[C@H]1C(C)=C[C@]23C(=O)[C@@H](C=C(COC(C)=O)[C@@H](O)[C@]12O)[C@H]1[C@@H](C[C@H]3C)C1(C)C` [3EZ,20Ac-ingenol, 3-O-(2′E,4′Z-decadienoyl)-20-O-acetylingenol] the “expression level of ATR protein” value (ATR protein [1]; [6]) was “an increase in expression level of ATR protein was recognized”, the “expression level of ATR protein” value (ATR protein [1]; 48 hours after treatment) was “a decrease was recognized” and the “amount of fragmented DNA (apoptosis)” value (TKG0377 cells) was “almost no fragmented DNA was detected”. For the same compound, the “abundance of p-Akt” value ([2]; 3 to 48 hours, entire cell fraction) was “down-regulation of p-Akt abundance was observed”, the “abundance of p-Akt” value ([2]; 24 hours after the start of treatment (Experimental Example 16)) was “an abundance of p-Akt in the BALL-1 cells decreased” and the “abundance of p-Akt” value ([2]; 24 hours, nuclear fraction) was “a moderate decrease in abundance of p-Akt was observed”. The “abundance of p-Akt” value ([2]; 48 hours, cytoplasm fraction) was “slightly reduced; also recorded: a slight decrease in abundance of p-Akt was observed”, the “abundance of p-Akt” value ([2]; 48 hours, entire cell) was “a decrease in abundance of phosphorylated Akt” and the “abundance of p-Akt” value ([2]; 48 hours, nuclear fraction) was “significantly decreased; also recorded: a further decrease in abundance of p-Akt”. The “abundance of p-Akt” value ([2]; cells with siRNA against PTEN introduced, after 12 hours) was “an increase in abundance of p-Akt was observed”, the “abundance of p-Akt” value ([2]; cells with siRNA against PTEN introduced, after 24 hours and 48 hours) was “a decrease in abundance of p-Akt was observed” and the “abundance of p-Akt” value ([3]; 24 and 48 hours, cytoplasm fraction and nuclear fraction) was “no decrease in abundance of p-Akt was observed”. The “abundance of p-Akt” value ([3]; 48 hours, cytoplasm fraction) was “remained almost unchanged”, the “abundance of p-Akt” value ([3]; 48 hours, entire cell) was “a decrease in abundance of phosphorylated Akt” and the “abundance of p-Akt” value ([3]; 48 hours, nuclear fraction) was “remained almost unchanged”. The “GSK-3β (an active type)” value (GSK-3β) was “an increase in GSK-3β was observed”, the “phosphorylation of p53” value ([4]; 12 hours after treatment, entire cells) was “phosphorylation of p53 was observed” and the “amount of phosphorylated p53 protein” value ([4]; nuclear fraction and cytoplasm fraction) was “the amount of phosphorylated p53 protein increased”. For the same compound, the “abundance of total amount of Akt” value (Akt protein; entire cell fraction, 12 hours and 24 hours) was “a temporary increase in abundances of both p-Akt and total amount of Akt was recognized”, the “abundance of total amount of Akt” value (Akt protein; entire cell fraction, 48 hours) was “a decrease was observed again” and the “abundance of total amount of Akt” value (Akt protein; nuclear fraction and cytoplasm fraction, 12 to 24 hours) was “an increase in abundance of both p-Akt and total amount of Akt was recognized”. The “abundance of total amount of Akt” value (Akt protein; nuclear fraction and cytoplasm fraction, 48 hours) was “a decrease was observed 48 hours after the treatment”, the “expression level of ATR protein” value (ATR protein [5]; [6]) was “an increase in expression level of ATR protein was recognized” and the “expression level of ATR protein” value (ATR protein [5]; 48 hours after treatment) was “a decrease was recognized”.

Source: patent US11464750B2, “Anticancer agent and use thereof” (priority 2017, dated 2022)
